The text below walks through data of patent publication US20230265116A1, “DEGRADATION OF (EGFR) BY CONJUGATION OF EGFR INHIBITORS WITH E3 LIGASE LIGAND AND METHODS OF USE” (BEIGENE, LTD., priority 2020, published 2023).

Common to all, as to type: cell-based
Assay [1] deals with EGFR Del19/T790M/C797S (H1975-clone #28). In words: EGFR degradation HTRF assay, H1975-clone #28 DTC cells. As to conditions: H1975 # 28 DTC cells; for DC50: EGFR degradation, IC50 (DC50) from curve fit, read-out: DC50(nM) H1975 # 28 DTC; for Dmax (%) H1975 # 28 DTC: maximum percentage of inhibition (degradation). In outline: (§1)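 Engineered H1975 lines (lentiviral mutant EGFR, endogenous EGFR knocked out, single-clone verified); 16h compound, 37° C., 5% CO2, 0.2% DMSO; 8-point 5-fold series from 10 uM final. HTRF lysate read; % degradation vs DMSO, four-parameter fit → DC50, Dmax.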
For orientation: In TR-FRET formats the signal depends on donor and acceptor labels being close together.

In assay [2] the target is T1, EGFR L858R/T790M/C797S (BaF3-LTC cells) (Homo sapiens, UniProt P00533, C797S/L858R/T790M).
T1 construct: expressed in transfected cells; host or cells: BaF3
Put plainly: EGFR degradation HTRF assay, BaF3-LTC cells. Conditions: BaF3-LTC cells; for DC50: EGFR degradation, IC50 (DC50) from curve fit, read-out: DC50(nM) BaF3-LTC; for Dmax: maximum percentage of inhibition (degradation), read-out: Dmax (%) BaF3-LTC. Summed up:
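EGFR remaining after a 16 h, 37 °C exposure (8 doses, 5-fold steps from 10 uM final, 0.2% DMSO) was quantified by HTRF antibodies in cell lysate. Percent inhibition relative to DMSO control was fitted by four-parameter logistic to give DC50; Dmax denotes maximal degradation.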

Assay [3] has as its target T2, EGFR L858R/C797S (BaF3 LC cells) (Homo sapiens, UniProt P00533, C797S/L858R).
T2 construct: expressed in transfected cells; host or cells: BaF3
Put plainly: EGFR degradation HTRF assay, BaF3 LC cells. As to conditions: BaF3 LC, 16h treatment; for DC50: read-out: BaF3 LC DC50; for Dmax: maximum percentage of degradation, read-out: BaF3 LC Dmax (%).

The subject of assay [4] is EGFR Del19/C797S (H1975-clone #23). In words: EGFR degradation HTRF assay, H1975-clone #23 DC cells. Conditions: 16h treatment; for H1975 #23 DC Dmax (%): maximum percentage of degradation; for DC50: H1975 #23 DC, read-out: H1975 #23 DC DC50. Summed up: as §1

Structures are written as SMILES.

As usually defined, the DC50 is the concentration giving 50% degradation. By Dmax is commonly meant the greatest extent of degradation seen.

T1 sequence (P00533 25-1210 T790M/C797S/L858R): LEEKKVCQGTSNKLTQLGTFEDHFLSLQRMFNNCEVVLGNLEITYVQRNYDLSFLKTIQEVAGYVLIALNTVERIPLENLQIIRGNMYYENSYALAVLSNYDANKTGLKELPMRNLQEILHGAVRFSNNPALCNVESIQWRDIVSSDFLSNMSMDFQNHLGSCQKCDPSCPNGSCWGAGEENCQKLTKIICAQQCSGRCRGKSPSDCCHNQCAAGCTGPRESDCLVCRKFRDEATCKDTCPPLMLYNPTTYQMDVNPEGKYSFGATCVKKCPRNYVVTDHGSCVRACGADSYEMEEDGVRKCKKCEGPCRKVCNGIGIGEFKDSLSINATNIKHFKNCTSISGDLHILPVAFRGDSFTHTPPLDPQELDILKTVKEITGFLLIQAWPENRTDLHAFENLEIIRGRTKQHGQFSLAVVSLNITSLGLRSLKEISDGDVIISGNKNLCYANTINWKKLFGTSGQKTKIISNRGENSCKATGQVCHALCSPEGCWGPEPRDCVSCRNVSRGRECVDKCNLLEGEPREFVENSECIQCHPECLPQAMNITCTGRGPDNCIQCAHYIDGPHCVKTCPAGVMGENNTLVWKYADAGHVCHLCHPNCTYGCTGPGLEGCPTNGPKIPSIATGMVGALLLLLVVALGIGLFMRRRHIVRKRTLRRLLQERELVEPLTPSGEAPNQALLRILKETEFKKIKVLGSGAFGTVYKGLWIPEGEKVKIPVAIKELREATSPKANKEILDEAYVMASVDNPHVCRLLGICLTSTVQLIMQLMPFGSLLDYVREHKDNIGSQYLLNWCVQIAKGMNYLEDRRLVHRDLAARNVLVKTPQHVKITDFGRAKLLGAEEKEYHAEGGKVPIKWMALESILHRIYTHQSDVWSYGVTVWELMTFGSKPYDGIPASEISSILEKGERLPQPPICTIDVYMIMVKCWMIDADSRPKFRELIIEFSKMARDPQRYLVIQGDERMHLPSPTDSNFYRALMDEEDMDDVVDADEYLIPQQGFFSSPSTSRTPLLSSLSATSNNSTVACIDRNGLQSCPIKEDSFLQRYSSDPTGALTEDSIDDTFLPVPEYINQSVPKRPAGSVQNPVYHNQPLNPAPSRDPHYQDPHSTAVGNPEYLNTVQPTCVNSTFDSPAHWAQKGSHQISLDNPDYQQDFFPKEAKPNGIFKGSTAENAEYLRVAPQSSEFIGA
T2 sequence (P00533 25-1210 C797S/L858R): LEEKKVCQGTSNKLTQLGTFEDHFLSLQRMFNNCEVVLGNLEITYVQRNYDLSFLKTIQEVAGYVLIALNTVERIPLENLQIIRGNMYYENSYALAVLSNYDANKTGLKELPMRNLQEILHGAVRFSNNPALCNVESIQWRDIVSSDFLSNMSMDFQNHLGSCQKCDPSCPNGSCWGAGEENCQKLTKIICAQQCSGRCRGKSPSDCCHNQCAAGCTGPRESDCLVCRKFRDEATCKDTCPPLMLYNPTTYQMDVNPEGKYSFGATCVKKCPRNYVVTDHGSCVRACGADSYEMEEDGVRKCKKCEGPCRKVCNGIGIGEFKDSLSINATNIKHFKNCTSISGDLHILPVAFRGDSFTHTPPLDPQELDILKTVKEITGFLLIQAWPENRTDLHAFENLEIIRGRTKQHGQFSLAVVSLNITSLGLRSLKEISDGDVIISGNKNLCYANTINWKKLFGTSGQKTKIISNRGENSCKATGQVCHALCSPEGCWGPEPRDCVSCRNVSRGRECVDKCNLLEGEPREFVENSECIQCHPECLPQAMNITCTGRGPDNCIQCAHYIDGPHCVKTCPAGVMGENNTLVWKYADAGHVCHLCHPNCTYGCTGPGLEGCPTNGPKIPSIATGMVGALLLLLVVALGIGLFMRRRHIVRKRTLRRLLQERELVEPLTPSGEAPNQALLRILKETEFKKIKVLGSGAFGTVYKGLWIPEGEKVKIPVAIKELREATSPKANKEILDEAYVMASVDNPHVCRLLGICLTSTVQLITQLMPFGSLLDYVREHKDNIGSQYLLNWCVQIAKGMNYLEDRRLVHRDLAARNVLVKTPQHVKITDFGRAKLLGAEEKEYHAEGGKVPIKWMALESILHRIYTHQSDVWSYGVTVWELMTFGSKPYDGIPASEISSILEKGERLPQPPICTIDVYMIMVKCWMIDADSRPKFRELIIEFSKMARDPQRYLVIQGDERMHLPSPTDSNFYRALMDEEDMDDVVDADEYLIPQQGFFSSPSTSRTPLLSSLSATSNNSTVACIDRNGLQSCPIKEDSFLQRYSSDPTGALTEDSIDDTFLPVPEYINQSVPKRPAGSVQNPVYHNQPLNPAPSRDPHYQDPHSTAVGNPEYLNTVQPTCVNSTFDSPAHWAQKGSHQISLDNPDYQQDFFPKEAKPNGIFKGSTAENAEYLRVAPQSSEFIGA

In the case of `CCOc1cc(N2CCC(N3CCN(CCc4cccc5c4C(C)(C)C(=O)N5C4CCC(=O)NC4=O)CC3)CC2)c(CC)cc1Nc1ncc(Br)c(Nc2ccc3c(=O)n(CC)ncc3c2P(C)(C)=O)n1` (stereo not shown) [Example 501, 3-(4-(2-(4-(1-(4-((5-bromo-4-((5-(dimethylphosphoryl)-2-ethyl-1-oxo-1,2-dihydrophthalazin-6-yl)amino)pyrimidin-2-yl)amino)-5-ethoxy-2-ethylphenyl)piperidin-4-yl)piperazin-1-yl)ethyl)-3,3-dimethyl-2-oxoindolin-1-yl)piperidine-2,6-dione], the DC50 in assay [1] came to 0.759 nM; in assay [2] it was 3.34 nM; in assay [3], 1.49 nM; in assay [4], 3.29 nM. Also, the “Dmax (%) H1975 # 28 DTC” value in assay [1] was found to be 85.93%. For the same compound, the “H1975 #23 DC Dmax (%)” value in assay [4] worked out at 65.52%.
Take `CCOc1cc(N2CCC(N3CCN(CCc4cc(F)c([C@H]5CCC(=O)NC5=O)c(F)c4)CC3)CC2)c(CC)cc1Nc1ncc(Br)c(Nc2ccc3c(=O)n(C)ncc3c2P(C)(C)=O)n1` [Example 502, (R)-3-(4-(2-(4-(1-(4-((5-bromo-4-((5-(dimethylphosphoryl)-2-methyl-1-oxo-1,2-dihydrophthalazin-6-yl)amino)pyrimidin-2-yl)amino)-5-ethoxy-2-ethylphenyl)piperidin-4-yl)piperazin-1-yl)ethyl)-2,6-difluorophenyl)piperidine-2,6-dione]: the half-maximal degradation concentration (DC50) was determined as 0.404 nM in assay [1], 3.02 nM in assay [2], 57.2 nM in assay [3] and 5.49 nM in assay [4]. Moreover, the “Dmax (%) H1975 # 28 DTC” value in assay [1] is given as 88.96%. In addition, the “H1975 #23 DC Dmax (%)” value in assay [4] was determined as 75.93%.
As to `CCOc1cc(N2CCC(N3CCN(CCc4c(F)ccc5c4n(C)c(=O)n5C4CCC(=O)NC4=O)CC3)CC2)c(CC)cc1Nc1ncc(Br)c(Nc2ccc3nc(CC)ccc3c2P(C)(C)=O)n1` (stereo not shown) [Example 503, 3-(4-(2-(4-(1-(4-((5-bromo-4-((5-(dimethylphosphoryl)-2-ethylquinolin-6-yl)amino)pyrimidin-2-yl)amino)-5-ethoxy-2-ethylphenyl)piperidin-4-yl)piperazin-1-yl)ethyl)-5-fluoro-3-methyl-2-oxo-2,3-dihydro-1H-benzo[d]imidazol-1-yl)piperidine-2,6-dione], the DC50 in assay [1] is 1.34 nM; in assay [2], 7 nM; in assay [3], 7.53 nM; in assay [4], 1.57 nM. In addition, in assay [1], the “Dmax (%) H1975 # 28 DTC” value is 79.81%. For the same compound, the “H1975 #23 DC Dmax (%)” value in assay [4] amounted to 81.03%.
As to `CCOc1cc(N2CCC(N3CCN(CCc4cccc5c4n(CC)c(=O)n5C4CCC(=O)NC4=O)CC3)CC2)c(CC)cc1Nc1ncc(Br)c(Nc2ccc3nc(CC)ccc3c2P(C)(C)=O)n1` (stereo not shown) [Example 504, 3-(4-(2-(4-(1-(4-((5-bromo-4-((5-(dimethylphosphoryl)-2-ethylquinolin-6-yl)amino)pyrimidin-2-yl)amino)-5-ethoxy-2-ethylphenyl)piperidin-4-yl)piperazin-1-yl)ethyl)-3-ethyl-2-oxo-2,3-dihydro-1H-benzo[d]imidazol-1-yl)piperidine-2,6-dione], the DC50 was determined as 0.962 nM in assay [1], 6.56 nM in assay [2], 12.4 nM in assay [3] and 2.95 nM in assay [4]. Further, the “Dmax (%) H1975 # 28 DTC” value in assay [1] was found to be 75.99%. Besides, the “H1975 #23 DC Dmax (%)” value in assay [4] worked out at 78.25%.
As for `CCOc1cc(N2CCC(N3CCN(CCc4ccc(F)c5c4oc(=O)n5C4CCC(=O)NC4=O)CC3)CC2)c(CC)cc1Nc1ncc(Br)c(Nc2ccc3nc(CC)ccc3c2P(C)(C)=O)n1` (stereo not shown) [Example 505, 3-(7-(2-(4-(1-(4-((5-bromo-4-((5-(dimethylphosphoryl)-2-ethylquinolin-6-yl)amino)pyrimidin-2-yl)amino)-5-ethoxy-2-ethylphenyl)piperidin-4-yl)piperazin-1-yl)ethyl)-4-fluoro-2-oxobenzo[d]oxazol-3(2H)-yl)piperidine-2,6-dione], the half-maximal degradation concentration (DC50) in assay [1] is 0.925 nM; in assay [2] it was 9.43 nM; in assay [3], 8.88 nM; in assay [4], 3.17 nM. The “Dmax (%) H1975 # 28 DTC” value in assay [1] came to 77.6%. In addition, the “H1975 #23 DC Dmax (%)” value in assay [4] turned out to be 68.68%.
`CCc1cc(Nc2ncc(Br)c(Nc3ccc4nc(C)ccc4c3P(C)(C)=O)n2)c(OC)cc1N1CCC(N2CCN(CCc3cccc4c3oc(=O)n4C3CCC(=O)NC3=O)CC2)CC1` (stereo not shown) [Example 506, 3-(7-(2-(4-(1-(4-((5-bromo-4-((5-(dimethylphosphoryl)-2-methylquinolin-6-yl)amino)pyrimidin-2-yl)amino)-2-ethyl-5-methoxyphenyl)piperidin-4-yl)piperazin-1-yl)ethyl)-2-oxobenzo[d]oxazol-3(2H)-yl)piperidine-2,6-dione]: in assay [1], the DC50 came out at 0.96 nM and the “Dmax (%) H1975 # 28 DTC” value amounted to 84.41%. For the same compound, in assay [2], the DC50 amounted to 6.1 nM and the Dmax amounted to 93%. Moreover, in assay [3], the Dmax amounted to 91.7% and the half-maximal degradation concentration (DC50) is 22.5 nM. Moreover, in assay [4], the “H1975 #23 DC Dmax (%)” value is 80.87% and the DC50 stood at 2.04 nM.
Regarding `CCc1cc(Nc2ncc(Br)c(Nc3ccc4nc(C)ccc4c3P(C)(C)=O)n2)c(OC)cc1N1CCC(N2CCN(C(=O)C3CN(c4cccc5c4C(C)(C)C(=O)N5C4CCC(=O)NC4=O)C3)CC2)CC1` (stereo not shown) [Example 507], in assay [1], the DC50 came out at 0.5 nM and the “Dmax (%) H1975 # 28 DTC” value was found to be 68.8%. Moreover, in assay [2], the 50% degradation concentration (DC50) stood at 4.3 nM and the Dmax amounted to 89.8%. In assay [3], the Dmax turned out to be 94% and the DC50 turned out to be 8.97 nM. In assay [4], the “H1975 #23 DC Dmax (%)” value is reported as 52.12% and the DC50 was found to be 2.41 nM.
For the compound `CCc1ccc2c(P(C)(C)=O)c(Nc3nc(Nc4cc(CC)c(N5CCC(N6CCN(CCc7cccc8c7oc(=O)n8C7CCC(=O)NC7=O)CC6)CC5)cc4OC)ncc3Br)ccc2n1` (stereo not shown) [Example 509, 3-(7-(2-(4-(1-(4-((5-bromo-4-((5-(dimethylphosphoryl)-2-ethylquinolin-6-yl)amino)pyrimidin-2-yl)amino)-2-ethyl-5-methoxyphenyl)piperidin-4-yl)piperazin-1-yl)ethyl)-2-oxobenzo[d]oxazol-3(2H)-yl)piperidine-2,6-dione], in assay [1], the DC50 was found to be 0.887 nM and the “Dmax (%) H1975 # 28 DTC” value worked out at 79.34%. Further, in assay [2], the DC50 was determined as 7.93 nM and the Dmax is 92.5%. Besides, in assay [3], the Dmax came to 80.4% and the DC50 was determined as 15.5 nM. Besides, in assay [4], the “H1975 #23 DC Dmax (%)” value stood at 77.77% and the DC50 came out at 1.94 nM.
For the compound `CCc1cc(Nc2ncc(Br)c(Nc3cc(F)c4nc(C)ccc4c3P(C)(C)=O)n2)c(OC)cc1N1CCC(N2CCN(C(=O)[C@@H]3CCN(c4cc(F)c([C@H]5CCC(=O)NC5=O)c(F)c4)C3)CC2)CC1` [Example 511, (R)-3-(4-((R)-3-(4-(1-(4-((5-bromo-4-((5-(dimethylphosphoryl)-8-fluoro-2-methylquinolin-6-yl)amino)pyrimidin-2-yl)amino)-2-ethyl-5-methoxyphenyl)piperidin-4-yl)piperazine-1-carbonyl)pyrrolidin-1-yl)-2,6-difluorophenyl)piperidine-2,6-dione], in assay [1], the DC50 amounted to 1.04 nM and the “Dmax (%) H1975 # 28 DTC” value is listed as 65%. In addition, in assay [2], the DC50 amounted to 10.6 nM and the Dmax stood at 92.5%. In addition, in assay [3], the Dmax was found to be 88.9% and the DC50 stood at 9.67 nM. In addition, in assay [4], the “H1975 #23 DC Dmax (%)” value was 67.01% and the DC50 was found to be 3.3 nM.
On to `CCc1cc(Nc2ncc(Br)c(Nc3ccc4nc(C)ccc4c3P(C)(C)=O)n2)c(OC)cc1N1CCC(N2CCN(CCc3cccc4c3C(C)(C)C(=O)N4C3CCC(=O)NC3=O)CC2)CC1` (stereo not shown) [Example 514, 3-(4-(2-(4-(1-(4-((5-bromo-4-((5-(dimethylphosphoryl)-2-methylquinolin-6-yl)amino)pyrimidin-2-yl)amino)-2-ethyl-5-methoxyphenyl)piperidin-4-yl)piperazin-1-yl)ethyl)-3,3-dimethyl-2-oxoindolin-1-yl)piperidine-2,6-dione], for which the DC50 in assay [1] amounted to 0.771 nM; in assay [2], 3.51 nM; in assay [3], 3.51 nM; in assay [4], 1.83 nM. In addition, in assay [1], the “Dmax (%) H1975 # 28 DTC” value came out at 66.48%. Moreover, the Dmax in assay [2] was 94.3%; in assay [3], 94%. For the same compound, the “H1975 #23 DC Dmax (%)” value in assay [4] amounted to 76.66%.
